Source: patent US20250268826A1, “IONIZABLE LIPIDOID COMPOSITIONS AND THERAPEUTIC USES THEREOF” (Flagship Pioneering Innovations VII, LLC, priority 2023, published 2025)

Assay: LNP size and polydispersity index (PDI) by dynamic light scattering (DLS)
Assay type: physicochemical
Details: Table 8; LNP 50:10:38.5:1.5 mol %; hEPO mRNA; N:P 6

| PDI | Compound |
| --- | --- |
| 0.215 | CCCCCCCCC(CCCCCC)C(=O)OCCN(CCOC(=O)C(CCCCCC)CCCCCCCC)C(=O)CCNCCC.Cl (stereo not shown) [Compound 908] |
| 0.142 | CCCCCCCCC(CCCCCC)C(=O)OCCN(CCOC(=O)C(CCCCCC)CCCCCCCC)C(=O)C(C)CNC.Cl (stereo not shown) [Compound 924] |
| 0.146 | CCCCCCCCC(CCCCCC)C(=O)OCCN(CCOC(=O)C(CCCCCC)CCCCCCCC)C(=O)C(C)CNCC.Cl (stereo not shown) [Compound 925] |
| 0.177 | CCCCCCCCC(CCCCCC)C(=O)OCCN(CCOC(=O)C(CCCCCC)CCCCCCCC)C(=O)C(C)CNCCC.Cl (stereo not shown) [Compound 928] |
| 0.117 | CCCCCCCCC(CCCCCC)C(=O)OCCN(CCOC(=O)C(CCCCCC)CCCCCCCC)C(=O)CCCN(C)C (stereo not shown) [Compound 931] |
| 0.301 | CCCCCCCCCC(CCCCCCCC)C(=O)OCCN(CCOC(=O)C(CCCCCCCC)CCCCCCCCC)C(=O)CCCN(C)C.Cl (stereo not shown) [Compound 933] |

Same assay, conditions: Table 8; LNP Lipid:DSPC:Cholesterol:DMG-PEG2k 50:10:38.5:1.5 mol %; hEPO mRNA; N:P 6

| Size [nm] | Compound |
| --- | --- |
| 69.2 | CCCCCCCCC(CCCCCC)C(=O)OCCN(CCOC(=O)C(CCCCCC)CCCCCCCC)C(=O)CCNCCC.Cl (stereo not shown) [Compound 908] |
| 87.2 | CCCCCCCCC(CCCCCC)C(=O)OCCN(CCOC(=O)C(CCCCCC)CCCCCCCC)C(=O)C(C)CNC.Cl (stereo not shown) [Compound 924] |
| 79.6 | CCCCCCCCC(CCCCCC)C(=O)OCCN(CCOC(=O)C(CCCCCC)CCCCCCCC)C(=O)C(C)CNCC.Cl (stereo not shown) [Compound 925] |
| 75.5 | CCCCCCCCC(CCCCCC)C(=O)OCCN(CCOC(=O)C(CCCCCC)CCCCCCCC)C(=O)C(C)CNCCC.Cl (stereo not shown) [Compound 928] |
| 125.8 | CCCCCCCCC(CCCCCC)C(=O)OCCN(CCOC(=O)C(CCCCCC)CCCCCCCC)C(=O)CCCN(C)C (stereo not shown) [Compound 931] |
| 110.9 | CCCCCCCCCC(CCCCCCCC)C(=O)OCCN(CCOC(=O)C(CCCCCCCC)CCCCCCCCC)C(=O)CCCN(C)C.Cl (stereo not shown) [Compound 933] |

Same assay, conditions: Table 10; LNP with hEPO mRNA, Lipid:DSPC:Cholesterol:DMG-PEG2k 50:10:38.5:1.5 mol %, N:P ratio 6; DLS

| Compound | PDI | Size (nm) |
| --- | --- | --- |
| CC/C=C\CCCCC(=O)OCCN(CCOC(=O)C(CCCCCC)CCCCCCCC)C(=O)CCN(CC)CC (stereo not shown) [Compound 917c] | 0.122 | 106.9 |
| CCCCCCCCC(CCCCCC)C(=O)OCCN(CCOC(=O)CCCCCCC(C)C)C(=O)CCN(CC)CC (stereo not shown) [Compound 917d] | 0.096 | 122 |
| CCCCCCCCCC(CCCCCCCCC)C(=O)OCCN(CCOC(=O)C(CCCCCCCCC)CCCCCCCCC)C(=O)CCN(C)CC [Compound 917e] | 0.222 | 52.5 |
| CCCCCCCCCC(CCCCCCCCC)C(=O)OCCN(CCOC(=O)C(CCCCCCCCC)CCCCCCCCC)C(=O)CCN(C)CCC [Compound 917g] | 0.281 | 49.2 |
| CCCCCCCC/C=C\CCCCCCCC(=O)OCCN(CCOC(=O)C(CCCCCC)CCCCCCCC)C(=O)CCN1CCCCC1 (stereo not shown) [Compound 917h] | 0.137 | 89.6 |

Now from value to compound:

| PDI | Size (nm) | Compound |
| --- | --- | --- |
| 0.124 | 82.8 | CCCCCCCC/C=C\CCCCCCCC(=O)OCCN(CCOC(=O)C(CCCCCC)CCCCCCCC)C(=O)CCN(CC)CC (stereo not shown) [Compound 917a] |
| 0.314 | 51.5 | CCCCCCCCCC(CCCCCCCCC)C(=O)OCCN(CCOC(=O)C(CCCCCCCCC)CCCCCCCCC)C(=O)CCN(CC)CC [Compound 917f] |

Assay: LNP Zeta potential measured using a Zetasizer (Malvern)
Assay type: physicochemical
Details: Table 8; LNP 50:10:38.5:1.5 mol %; hEPO mRNA; N:P 6

| Zeta potential [mV] | Compound |
| --- | --- |
| −8 | CCCCCCCCC(CCCCCC)C(=O)OCCN(CCOC(=O)C(CCCCCC)CCCCCCCC)C(=O)CCNCCC.Cl (stereo not shown) [Compound 908] |
| −8.7 | CCCCCCCCC(CCCCCC)C(=O)OCCN(CCOC(=O)C(CCCCCC)CCCCCCCC)C(=O)C(C)CNC.Cl (stereo not shown) [Compound 924] |
| −6.1 | CCCCCCCCC(CCCCCC)C(=O)OCCN(CCOC(=O)C(CCCCCC)CCCCCCCC)C(=O)C(C)CNCC.Cl (stereo not shown) [Compound 925] |
| −11.9 | CCCCCCCCC(CCCCCC)C(=O)OCCN(CCOC(=O)C(CCCCCC)CCCCCCCC)C(=O)C(C)CNCCC.Cl (stereo not shown) [Compound 928] |
| −8.457 | CCCCCCCCC(CCCCCC)C(=O)OCCN(CCOC(=O)C(CCCCCC)CCCCCCCC)C(=O)CCCN(C)C (stereo not shown) [Compound 931] |
| −12.2 | CCCCCCCCCC(CCCCCCCC)C(=O)OCCN(CCOC(=O)C(CCCCCCCC)CCCCCCCCC)C(=O)CCCN(C)C.Cl (stereo not shown) [Compound 933] |

Same assay, conditions: Table 10; LNP with hEPO mRNA, Lipid:DSPC:Cholesterol:DMG-PEG2k 50:10:38.5:1.5 mol %, N:P ratio 6

| Compound | Zeta potential (mV) |
| --- | --- |
| CC/C=C\CCCCC(=O)OCCN(CCOC(=O)C(CCCCCC)CCCCCCCC)C(=O)CCN(CC)CC (stereo not shown) [Compound 917c] | −4.5 |
| CCCCCCCCC(CCCCCC)C(=O)OCCN(CCOC(=O)CCCCCCC(C)C)C(=O)CCN(CC)CC (stereo not shown) [Compound 917d] | −3.3 |
| CCCCCCCCCC(CCCCCCCCC)C(=O)OCCN(CCOC(=O)C(CCCCCCCCC)CCCCCCCCC)C(=O)CCN(C)CC [Compound 917e] | −4.2 |
| CCCCCCCCCC(CCCCCCCCC)C(=O)OCCN(CCOC(=O)C(CCCCCCCCC)CCCCCCCCC)C(=O)CCN(C)CCC [Compound 917g] | −10.2 |
| CCCCCCCC/C=C\CCCCCCCC(=O)OCCN(CCOC(=O)C(CCCCCC)CCCCCCCC)C(=O)CCN1CCCCC1 (stereo not shown) [Compound 917h] | −8.2 |

Other lines, results leading:

| Zeta potential (mV) | Compound |
| --- | --- |
| −5.5 | CCCCCCCC/C=C\CCCCCCCC(=O)OCCN(CCOC(=O)C(CCCCCC)CCCCCCCC)C(=O)CCN(CC)CC (stereo not shown) [Compound 917a] |
| −11.1 | CCCCCCCCCC(CCCCCCCCC)C(=O)OCCN(CCOC(=O)C(CCCCCCCCC)CCCCCCCCC)C(=O)CCN(CC)CC [Compound 917f] |

Assay: Encapsulation efficiency (EE %) by fluorescence based Ribogreen assay
Assay type: physicochemical
Details: Table 8; LNP 50:10:38.5:1.5 mol %; hEPO mRNA; N:P 6

| Encapsulation Efficiency % [%] | Compound |
| --- | --- |
| 100 | CCCCCCCCC(CCCCCC)C(=O)OCCN(CCOC(=O)C(CCCCCC)CCCCCCCC)C(=O)CCNCCC.Cl (stereo not shown) [Compound 908] |
| 99.9 | CCCCCCCCC(CCCCCC)C(=O)OCCN(CCOC(=O)C(CCCCCC)CCCCCCCC)C(=O)C(C)CNC.Cl (stereo not shown) [Compound 924] |
| 99.9 | CCCCCCCCC(CCCCCC)C(=O)OCCN(CCOC(=O)C(CCCCCC)CCCCCCCC)C(=O)C(C)CNCC.Cl (stereo not shown) [Compound 925] |
| 91.8 | CCCCCCCCC(CCCCCC)C(=O)OCCN(CCOC(=O)C(CCCCCC)CCCCCCCC)C(=O)C(C)CNCCC.Cl (stereo not shown) [Compound 928] |
| 99.9 | CCCCCCCCC(CCCCCC)C(=O)OCCN(CCOC(=O)C(CCCCCC)CCCCCCCC)C(=O)CCCN(C)C (stereo not shown) [Compound 931] |
| 99.2 | CCCCCCCCCC(CCCCCCCC)C(=O)OCCN(CCOC(=O)C(CCCCCCCC)CCCCCCCCC)C(=O)CCCN(C)C.Cl (stereo not shown) [Compound 933] |

Same assay, conditions: Table 10; LNP with hEPO mRNA, Lipid:DSPC:Cholesterol:DMG-PEG2k 50:10:38.5:1.5 mol %, N:P ratio 6; Ribogreen assay

| Compound | Encapsulation Efficiency % [%] |
| --- | --- |
| CC/C=C\CCCCC(=O)OCCN(CCOC(=O)C(CCCCCC)CCCCCCCC)C(=O)CCN(CC)CC (stereo not shown) [Compound 917c] | 84 |
| CCCCCCCCC(CCCCCC)C(=O)OCCN(CCOC(=O)CCCCCCC(C)C)C(=O)CCN(CC)CC (stereo not shown) [Compound 917d] | 60.3 |
| CCCCCCCCCC(CCCCCCCCC)C(=O)OCCN(CCOC(=O)C(CCCCCCCCC)CCCCCCCCC)C(=O)CCN(C)CC [Compound 917e] | 95.4 |
| CCCCCCCCCC(CCCCCCCCC)C(=O)OCCN(CCOC(=O)C(CCCCCCCCC)CCCCCCCCC)C(=O)CCN(C)CCC [Compound 917g] | 93.5 |
| CCCCCCCC/C=C\CCCCCCCC(=O)OCCN(CCOC(=O)C(CCCCCC)CCCCCCCC)C(=O)CCN1CCCCC1 (stereo not shown) [Compound 917h] | 91.4 |

The remaining lines, values ahead:

| Encapsulation Efficiency % [%] | Compound |
| --- | --- |
| 43.4 | CCCCCCCC/C=C\CCCCCCCC(=O)OCCN(CCOC(=O)C(CCCCCC)CCCCCCCC)C(=O)CCN(CC)CC (stereo not shown) [Compound 917a] |
| 91.9 | CCCCCCCCCC(CCCCCCCCC)C(=O)OCCN(CCOC(=O)C(CCCCCCCCC)CCCCCCCCC)C(=O)CCN(CC)CC [Compound 917f] |
